Data as given in patent publication US9643952B2, “Pyridone compound” (KYOWA HAKKO KIRIN CO., LTD., priority 2012, dated 2017).

System: dinitrofluorobenzene-induced auricle edema reaction
Test: Suppressive action on dinitrofluorobenzene-induced auricle edema reaction in mouse
Format: in vivo
Conditions: for auricle edema suppression rate (%): BALE/c mice (female), test compound 1% (w/v %) in acetone applied to front and back of auricle (total 20 μL) 1 hr before and 3 hr after induction, auricle thickness 24 hr after induction; for suppressive action on auricle edema response (in words): BALE/c mice, 1% (w/v %) in acetone applied to auricle
Experimental: BALE/c mice (female, supplied by CHARLES RIVER LABORATORIES JAPAN, INC.) were purchased at the age of 5 weeks. After quarantine and acclimation, mice showing smooth body weight increase and free of abnormality in appearance were used and the test was started at the age of 7 weeks. The mice were housed in a breeding room at room temperature 19-25° C., humidity 30-70%, 12 hr lighting per day (7 a.m.-7 p.m.) with 3 mice in each plastic gauge, and bred on with free ingestion of a commercially available solid feed and water. Two days before the test, the abdomen of the BALE/c mice was shaved, and the mice were immunized by applying 100 μL of a solution {concentration 0.5% [weight (w)/volume (v) %]} of dinitrofluorobenzene (manufactured by Nacalai Tesque) in acetone (manufactured by Wako Pure Chemical Industries, Ltd.) to the shaved part. The reaction was induced by applying dinitrofluorobenzene-acetone solution [concentration 0.2% (w/v %)] to the front and the back of auricle (10 μL to each, total 20 μL) on day 5 after the immunization. A test compound dissolved in acetone at concentration of 1% (w/v %) was administered by applying same to the front and the back of auricle (10 μL to each, total 20 μL) 1 hr before and 3 hr after induction of the reaction. After application, the applied part was air-dried with a dryer. The group applying administered with the test compound was taken as a test compound administration group, and the group applying administered with acetone as a solvent instead of the test compound was taken as a solvent administration group. Also, the group free of immunization and reaction induction but applying administered with acetone instead of the test compound was taken as a normal group. The thickness of auricle was measured using a dial thickness gauge (G-1A manufactured by OZAKI MFG. CO., LTD.) immediately before and 24 hr after induction of the reaction, and the difference thereof was taken as auricle edema. The suppression rate (%) of auricle edema was calculated according to the following formula. [formula]

SMILES | auricle edema suppression rate (%) | suppressive action on auricle edema response (in words)
Cc1ccc(Cl)cc1Nc1c(C(=O)N2CCC(c3ccc(F)cc3)CC2)cn(OCCO)c(=O)c1Cl [Compound 204, 3-chloro-4-(5-chloro-2-methylphenylamino)-5-[4-(4-fluorophenyl)piperidine-1-carbonyl]-1-(2-hydroxyethoxyl)pyridin-2(1H)-one] | 41% | showed a suppressive action on auricle edema response
COCCn1cc(C(=O)N2CCC(c3ccc(F)cc3)CC2)c(Nc2ccc3scnc3c2)c(Cl)c1=O [Compound 206, 4-(benzo[d]thiazol-5-ylamino)-3-chloro-5-[4-(4-fluorophenyl)piperidine-1-carbonyl]-1-(2-methoxyethyl)pyridin-2(1H)-one] | 30% | showed a suppressive action on auricle edema response
Cn1cc(C(=O)N2CCC(c3ccc(F)cc3)CC2)c(Nc2ccc(S(C)(=O)=O)cc2F)c(Cl)c1=O [Compound 145, 3-chloro-4-[2-fluoro-4-(methylsulfonyl)phenylamino]-5-[4-(4-fluorophenyl)piperidine-1-carbonyl]-1-methylpyridin-2(1H)-one] | – | showed a suppressive action on auricle edema response
Cc1c(Nc2ccc(F)cc2F)c(C(=O)N2CCC(c3ccc(F)cc3)CC2)cn(C)c1=O [Compound 125, 4-(2,4-difluorophenylamino)-5-[4-(4-fluorophenyl)piperidine-1-carbonyl]-1,3-dimethylpyridin-2(1H)-one] | 47% | showed a suppressive action on auricle edema response
Cc1cc(C#N)ccc1Nc1c(C(=O)N2CCC(c3ccc(F)cc3)CC2)cn(C)c(=O)c1Cl [Compound 100, 4-{3-chloro-5-[4-(4-fluorophenyl)piperidine-1-carbonyl]-1-methyl-2-oxo-1,2-dihydropyridin-4-ylamino}-3-methylbenzonitrile] | 53% | showed a suppressive action on auricle edema response
COCCn1cc(C(=O)N2CCC(c3ccc(F)cc3)CC2)c(Nc2ccc(F)cc2F)c(Cl)c1=O [Compound 144, 3-chloro-4-(2,4-difluorophenylamino)-5-[4-(4-fluorophenyl)piperidine-1-carbonyl]-1-(2-methoxyethyl)pyridin-2(1H)-one] | 32% | –
